{"source": "patent US20110312961A1", "about": "“2,5-Disubstituted Morpholine Orexin REceptor Antagonists” (priority 2008, published 2011)", "key": {"[1]": {"test": "Aqueous solubility of salts (salt screen)", "type": "physicochemical", "details": "target 10 mg/ml at 25° C., unbuffered"}, "[2]": {"system": "STZ rat model of diabetic neuropathy", "test": "Streptozotocin (STZ)-induced diabetic neuropathy, Von Frey allodynia", "type": "in vivo", "details": "150 mg/kg i.p., 2 hours before testing, all treatment days, vs pretreatment and vehicle, p<0.01", "source_text": "Peripheral neuropathy, a major complication of diabetes, often results in spontaneous pain or the perception of pain from contact with a normally non-noxious stimulus. Such neuropathic pain is experienced by 20-24% of diabetic patients, or approximately 30 million people worldwide (Schmader, 2002). The streptozotocin (STZ)-induced diabetes model in rats provides a means to evaluate the efficacy of test compounds that offer therapeutic potential for peripheral neuropathy and to understand their putative mechanism of action. In this model, a single injection of STZ, an antibiotic that mimics clinical diabetes by causing irreversible damage to the pancreatic β and α-cells leads to chronic hyperglycemia, nerve dysfunction and pain sensitivity. The current study utilizes the STZ rat model of diabetic neuropathy to investigate the effects of (2S,3R)—N-2-((3-pyridinyl)methyl)-1-azabicyclo[2.2.2]oct-3-yl)-3,5-difluorobenzamide on mechanical allodynia, an assessment of pain.\nDiabetes was induced by a 0.5 ml injection of streptozotocin (60 mg/kg) dissolved in citrate buffer (pH) into the tail vein of each rat The development of diabetes was confirmed by measuring the blood glucose levels (BGL) of all animals on study day 3 (BGL>300 mg/dL). […] These animals were tested again for their BGL at study day 23.\n(2S,3R)—N-2-((3-pyridinyl)methyl)-1-azabicyclo[2.2.2]oct-3-yl)-3,5-difluorobenzamide (0.1, 1 or 10 mg/kg p.o.) was administered as a solution of the hydrochloride salt in water once daily starting on study day 14 or study day 16 and continuing through study day 21 or 23, respectively. The control article gabapentin (in 0.9% saline, 150 mg/kg i.p.) was only administered on allodynia test days. Test item, vehicle or control article administration was based on evaluation of allodynia on study day 14. If allodynia was not present on study day 14, the animal was evaluated again at study day 16. Pain response was measured either on study days 14 and 21 or 16 and 23, 30 minutes after Test Item administration.\nFor the allodynia assessments, Von Frey filaments were used according to the methods of Chaplan and colleagues (1994). Briefly, the rats were placed in an enclosure and positioned on a metal mesh surface, but allowed to move freely. The rats' cabins were covered with red cellophane to diminish environmental distributions. The test began after cessation of exploratory behavior.\nWhen the tip of a Von Frey fiber of given length and diameter was pressed against the skin at right angles, the force of application increases as long as the researcher continued to advance the probe until the fiber bent. After the fiber bent, the probe was advanced, causing the fiber to bend more, but without additional force being applied. The animal would indicate sensation by pulling back its paw. In the absence of a paw withdrawal response to the initially selected filament, a stronger stimulus was presented; in the event of paw withdrawal, the next weaker stimulus was chosen. In this fashion, the resulting pattern of positive and negative responses was used to determine the paw withdrawal threshold.\nThe set of Von Frey monofilaments provide an approximate logarithmic scale of actual force and a linear scale of perceived intensity. Below is a table showing the force (g) and its corresponding size of monofilaments.\nAll normally distributed data are presented as means±SEM, as well as the animals' individual values followed by a student T-test (Software: Microsoft® Excel). A p value <0.05 is considered to represent a significant difference. Due to the non-normal distribution of the allodynia data, descriptions of those data are provided as both mean (±SEM) and median values in order to represent their imprecise nature and skewed distribution."}, "[3]": {"system": "db/db mouse", "test": "Murine model of type 2 diabetes mellitus (db/db)", "type": "in vivo", "details": "MLA 3 mg/kg daily via gavage with Compound A 1.0 mg/kg, obese mice", "source_text": "The db/db mouse, a well established model of type 2 diabetes mellitus, is a leptin-deficient mutant that expresses an obese phenotype and also commonly expresses metabolic symptoms including hyperglycemia, hyperlipidemia and hyperinsulinemia (Halaas et al., 1995 and Lee et al., 1996). This experimental animal model of diabetes was employed in a study designed to determine the effects of (2S,3R)—N-2-((3-pyridinyl)methyl)-1-azabicyclo[2.2.2]oct-3-yl)-3,5-difluorobenzamide on body mass and several additional metabolic parameters.\nIn this study, (2S,3R)—N-2-((3-pyridinyl)methyl)-1-azabicyclo[2.2.2]oct-3-yl)-3,5-difluorobenzamide was repeatedly administered orally (via gavage) at 1.0 mg/kg once daily starting from the age of approximately 3 weeks and continuing throughout the 7-week study. Nondiabetic heterozygote littermate mice (db/+; designated “Db”) were used as controls. Body weight and food intake were determined twice weekly. The α7 antagonist methyllycaconitine (MLA) was also given concurrently via gavage at 3 mg/kg daily to selected cohorts of db/db (designated “db”) or db/+mice. At the end of the 7-week dosing regimen, total growth rates (overall body weight gain) and average daily food intake were calculated. In addition, glucose levels were assessed in mice fasted overnight. Furthermore, blood sample analytes from mice fasted overnight were collected for measurements of tumor necrosis factor-a (TNF-α), triglycerides and glycosylated hemoglobin (HbA1c). All data are expressed as mean±SEM. For each parameter investigated, differences among all groups were compared by one-way ANOVA with post-hoc Neuman-Keuls multiple comparison test."}, "[4]": {"system": "CD-1 mice", "test": "Formalin test", "type": "in vivo, mouse", "details": "5 mg/kg s.c., positive control", "protocol": "One of the most clinically predictive screening models of acute pain is the formalin test in mice (LeBars et al., 2001). In this paradigm, originally described by Dubuisson and Dennis (1977), a diluted solution of formalin is injected into the plantar surface of a subject's (rat or mouse) rear paw and nociceptive behavior is measured; for instance, licking and biting of the injected paw. Two phases of the response are observed. First an early phase, starting immediately after injection and lasting 5-10 minutes, followed by a late phase that can last from 15-60 minutes after injection. Nociceptive response is attributed to direct chemical stimulation in the early phase and inflammation/persistent pain in the later phase (Dubuisson and Dennis, 1977). The response in the late phase also depends on changes in processing of information in the spinal cord due to the afferent barrage during the early phase (Coderre et al., 1990). An advantage of the test is that two different types of stimuli are employed in the same assay to study the possibility of varying analgesic effects of a drug in the two phases of the test (Tjølsen and Hole, 1997).\nSubjects (adult male CD-1 mice (Charles River, Raleigh, N.C.) weighing approximately 20-25 grams) were removed from their home cage and weighed, then placed in a clear Plexiglas™ observation box for an acclimation period of 20-30 minutes. Mice were then removed from the observation chambers and (2S,3R)—N-2-((3-pyridinyl)methyl)-1-azabicyclo[2.2.2]oct-3-yl)-3,5-difluorobenzamide (as the hydrochloride salt in 0.9% saline) (1, 3 or 10 mg/kg s.c. (calculated with respect to the free base)), morphine (5 mg/kg; s.c.) or 0.9% saline vehicle was administered subcutaneously in a volume of 1 mL/kg. Mice were then returned to the chamber for the predetermined pretreatment time of 30 minutes for (2S,3R)—N-2-((3-pyridinyl)methyl)-1-azabicyclo[2.2.2]oct-3-yl)-3,5-difluorobenzamide and morphine.\nAfter the test compound pretreatment time, the animals were injected with formalin solution (2.5% derived as a 1:4 dilution of 10% phosphate buffered formalin solution (Sigma):distilled water). The subject's assigned paw was gasped gently and formalin solution was injected into the paw intra-dermally in the middle on the dorsal side. Once injected, the subject was immediately returned to its observation chamber and a timer was started to mark the beginning of Phase I. Each subject was videotaped for the entire 40-minute session. […] The time spent licking during that 1 min interval was recorded, and the presence or absence of paw favoring was noted.\nFor data analyses, phase I of the test was defined as 0 to 5 minutes after formalin injection, and phase II was defined as 20 to 40 minutes after formalin injection. The time spent licking during the 1 minute intervals during those time frames was recorded and graphed as mean±S.E.M. For comparisons across treatment groups, 1-way analyses of variance (ANOVAs) were performed for each phase of the session with treatment as the […] variable. Post-hoc analyses were performed when appropriate to determine specific group differences."}, "[5]": {"system": "Sprague-Dawley rats", "test": "Complete Freund's adjuvant (CFA)-induced thermal hyperalgesia", "type": "in vivo, rat", "details": "3 mg/kg s.c., 1 hour after dosing, reference standard", "protocol": "Injection of complete Freund's adjuvant (CFA) in rats is commonly used to evaluate compounds with potential for use as drugs in treatment of mono-arthritis (osteo-arthritis) and other inflammatory conditions. Signs of hyperalgesia develop within 24 h (Schaible and Grubb, 1993).\n(2S,3R)—N-2-((3-pyridinyl)methyl)-1-azabicyclo[2.2.2]oct-3-yl)-3,5-difluorobenzamide was evaluated for possible analgesia effect in the CFA-induced thermal hyperalgesia test in rats using methods similar to those described by Walker and colleagues (2003). Briefly, adult male Sprague-Dawley rats (BioLasco, Taiwan) weighing 180±20 g on receipt were randomly assigned to treatment groups of n=8 per group. Animals each received a sub plantar injection (0.1 mL) of CFA (DIFCO, 264010; 0.1% solution) to the right hind paw at 24 h prior to experimental testing. Thermal hyperalgesia was tested using a Paw/Tail stimulator analgesia meter (IITC Model-336G, IITC, USA) with a thermally regulated glass floor set at 30° C. […] The time required for the animal to withdraw the paw from the thermal stimulus was automatically recorded. […]\nTwenty-four hours after CFA injection, subjects were pre-selected (for clear presence of thermal hyperalgesia) for experimentation only if the latency to withdrawal was less than 75% of the baseline. […] The post-treatment level of thermal hyperalgesia was then measured at 60 minutes post-treatment. […]"}, "[6]": {"system": "ovalbumin-sensitized mice", "test": "Airway hyperresponsiveness (Penh) and BALF cell counts", "type": "in vivo, mouse", "protocol": "Using the method of Hamelmann et al, (2S,3R)—N-2-((3-pyridinyl)methyl)-1-azabicyclo[2.2.2]oct-3-yl)-3,5-difluorobenzamide was evaluated for possible inhibition of airway hyper-responsiveness in mice. Briefly, ovalbumin (OVA)-sensitized animals, 12 animals per group, were challenged by nasal inhalation with aerosolized 5% OVA for 25 min on days 21, 23, and 25. The mice were treated with vehicle or (2S,3R)—N-2-((3-pyridinyl)methyl)-1-azabicyclo[2.2.2]oct-3-yl)-3,5-difluorobenzamide subcutaneously (s.c.) twice daily from day 21 to day 26 or once daily intratracheally (i.t.), preceding ovalbumin aerosol challenge by 30 min on days 21, 23 and 25 as well as methacholine challenge or bronchoalveolar lavage fluids (BALF) harvest on day 26. Dexamethasone, the reference standard, was administered at 3 mg/kg orally (p.o.) once daily 60 min before OVA challenge on day 21, 23 and 25 and 60 min before methacholine provocation or BALF harvest on day 26. Noninvasive measurements of airway responsiveness were performed by using whole body plethysmography, in which increases in enhanced pause (Penh) serve as an index of airway obstruction. Responses to inhaled methacholine were measured and calculated as percentage of respective baseline values. Unpaired Students t-test was used for comparison between the vehicle control and the sham group; one-way ANOVA and Dunnett's post-hoc analyses were applied for comparison between the vehicle control and treated groups. Statistical significance is considered at P<0.05."}}, "data": [{"smiles": "O=C(N[C@@H]1C2CCN(CC2)[C@H]1Cc1cccnc1)c1cc(F)cc(F)c1.O=P(O)(O)O", "note": "[Phosphate mono salts]", "values": [{"measurement": "Aqueous Solubility", "setting": "[1]", "value": ">10000", "unit": "µg/mL"}]}, {"smiles": "NCC1(CC(=O)O)CCCCC1", "note": "[gabapentin, reference compound]", "values": [{"measurement": "tactile allodynia", "setting": "[2]", "value": "reversed the tactile allodynia significantly"}]}, {"smiles": "CCN1C[C@]2(COC(=O)c3ccccc3N3C(=O)C[C@H](C)C3=O)CC[C@H](OC)[C@@]34[C@@H]5C[C@H]6[C@H](OC)[C@@H]5[C@](O)(C[C@@H]6OC)[C@@](O)([C@@H](OC)[C@H]23)[C@@H]14", "note": "[MLA, methyllycaconitine, reference compound]", "values": [{"measurement": "effect of MLA co-administration on the inhibition of fasting plasma glucose", "setting": "[3]", "value": "not reversed"}, {"measurement": "effect of MLA co-administration on the reduced food consumption", "setting": "[3]", "value": "failed to show the reduced daily average food consumption"}, {"measurement": "effect of MLA co-administration on the reduced weight gain", "setting": "[3]", "value": "failed to show the reduced weight gain"}, {"measurement": "effect of MLA co-administration on the reduction in glycosylated HbA1c", "setting": "[3]", "value": "attenuated"}, {"measurement": "effect of MLA co-administration on the reduction in triglycerides", "setting": "[3]", "value": "not attenuated"}, {"measurement": "effect of MLA co-administration on the reduction of TNF alpha", "setting": "[3]", "value": "inhibited"}]}, {"smiles": "CN1CC[C@]23c4c5ccc(O)c4O[C@H]2[C@@H](O)C=C[C@H]3[C@H]1C5", "note": "[morphine, reference compound]", "values": [{"measurement": "efficacy, phase I", "setting": "[4]", "value": "efficacious"}, {"measurement": "efficacy, phase II", "setting": "[4]", "value": "efficacious"}, {"measurement": "analgesic effect on CFA-induced thermal hyperalgesia", "setting": "[5]", "value": "significant analgesic activity"}]}, {"smiles": "Cl.O=C(N[C@@H]1C2CCN(CC2)[C@H]1Cc1cccnc1)c1cc(F)cc(F)c1", "note": "[Hydrochloride mono salts]", "values": [{"measurement": "Aqueous Solubility", "setting": "[1]", "value": ">10000", "unit": "µg/mL"}]}, {"smiles": "O=C(N[C@@H]1C2CCN(CC2)[C@H]1Cc1cccnc1)c1cc(F)cc(F)c1.O=C(N[C@@H]1C2CCN(CC2)[C@H]1Cc1cccnc1)c1cc(F)cc(F)c1.O=C(O)c1ccc(O)cc1", "note": "[4-Hydroxybenzoate mono salt]", "values": [{"measurement": "Aqueous Solubility", "setting": "[1]", "value": ">10000", "unit": "µg/mL"}]}, {"smiles": "C[C@@H]1C[C@H]2[C@@H]3CCC4=CC(=O)C=C[C@]4(C)[C@@]3(F)[C@@H](O)C[C@]2(C)[C@@]1(O)C(=O)CO", "note": "[Dexamethasone, reference compound]", "values": [{"measurement": "methacholine (10 and 30 mg/mL)-induced increase in Penh values", "setting": "[6]; 3 mg/kg PO once daily, reference standard", "value": "significant inhibition"}, {"measurement": "increase in total WBC, neutrophils, lymphocytes, monocytes and eosinophils in BALF", "setting": "[6]; 3 mg/kg p.o. once daily", "value": "inhibited significantly"}]}, {"smiles": "O=C(N[C@@H]1C2CCN(CC2)[C@H]1Cc1cccnc1)c1cc(F)cc(F)c1.O=C(O)/C=C/C(=O)O", "note": "[Fumarate mono salt]", "values": [{"measurement": "Aqueous Solubility", "setting": "[1]", "value": ">10000", "unit": "µg/mL"}]}]}
